We go through three compounds from article PMC4938410 (PLoS ONE, 2016).

The target of test [1] is T1, BAS0540 (Bacillus anthracis, UniProt A0A6L7HQL1).
T1 construct: gene GBAA_0571
As to conditions: 60 mM donor, 20 mM MgCl2, pH 7.5, 37 °C; covalent phosphorylation, probable acceptor Asp50.

For test [2], the target named is T2, BAS0541T (Bacillus anthracis, UniProt A0A384L3H6).
T2 construct: gene GBAA_0572
As to conditions: labelled compound ([gamma-32P]ATP mixed with 2.5 uM ATP), 4 mM MgCl2, pH 8, 37 °C.

The structures appear in SMILES notation.

T1 sequence (A0A6L7HQL1 1-223 limits assumed): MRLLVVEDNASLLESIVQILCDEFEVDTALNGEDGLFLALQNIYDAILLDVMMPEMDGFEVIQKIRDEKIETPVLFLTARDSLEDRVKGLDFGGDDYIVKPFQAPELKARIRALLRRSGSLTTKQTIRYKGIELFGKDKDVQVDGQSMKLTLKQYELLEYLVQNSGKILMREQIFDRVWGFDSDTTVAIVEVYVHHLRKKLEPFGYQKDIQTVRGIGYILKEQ
T2 sequence (A0A384L3H6 190-416 limits assumed): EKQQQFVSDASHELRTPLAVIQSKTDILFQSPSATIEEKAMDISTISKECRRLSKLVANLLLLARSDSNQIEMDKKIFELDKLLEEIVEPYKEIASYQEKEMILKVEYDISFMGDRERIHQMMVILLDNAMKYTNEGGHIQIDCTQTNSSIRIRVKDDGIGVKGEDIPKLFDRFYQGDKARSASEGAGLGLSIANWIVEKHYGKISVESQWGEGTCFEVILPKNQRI

Take `NC(=O)OP(=O)(O)O` [carbamoyl phosphate]: the “phosphorylation by small-molecule donor, native PAGE, Coomassie” value in test [1] was “physiologically relevant small molecule phosphodonors, AcP and CP”.

For the compound `CC(=O)OP(=O)(O)O` [acetyl phosphate], in test [1], the “phosphorylation by small-molecule donor, native PAGE, Coomassie” value is “physiologically relevant small molecule phosphodonors, AcP and CP”.

On to `Nc1ncnc2c1ncn2[C@@H]1O[C@H](COP(=O)(O)OP(=O)(O)OP(=O)(O)O)[C@@H](O)[C@H]1O` [ATP], for which the “autophosphorylation, SDS-PAGE autoradiography” value in test [2] is on record as “Autophosphorylation was assayed by incubating the purified BAS0541T with radiolabelled ATP mixture”.
